Reference: US12486301B2, “8-fluoro-4-alkylumbelliferyl α-D-glucopyranoside, biological sterilization indicator including the same and its use in a method of determining efficacy of a sterilization process” (Solventum Intellectual Properties Company, priority 2019, dated 2025)

Experiment: Enzyme substrate degradation in culture media at various temperatures (fluorescence)
Format: physicochemical
Settings: 0.3 mg/mL; for MEASURED FLUORESCENCE, RFU 70° C. 15 min: 70° C. dry heat block 15 min; for MEASURED FLUORESCENCE, RFU 100° C. 15 + 15 min: 100° C. 15 min, second time 15 min; for MEASURED FLUORESCENCE, RFU 100° C. 15 min: 100° C. heat block 15 min; for MEASURED FLUORESCENCE, RFU RT 15 min: room temperature (24.5° C.)
Description: Culture media was prepared by dissolving 5 g/L peptone C (BD 211921) and 12 g/L phytone peptone (BD BBL 211906) in deionized water. The pH was adjusted with 1 N NaOH or 0.1 N HCl, the media brought to volume, and then filter sterilized with a 0.22 micron PES filter. Stock solutions ([…]) of 8′-fluoro-4′-methylumbelliferyl-α-D-glucopyranoside, 6′-fluoro-4′-methylumbelliferyl-α-D-glucopyranoside, and 4-methylumbelliferyl-α-D-glucopyranoside were prepared in DMSO. The aforementioned substrates were added to culture media at a final concentration of 0.1 mg/ml and media were then 0.22 μm filter sterilized.
(§1) One milliliter of filter-sterilized culture media (pH 6) containing 0.3 mg/ml of 8′-fluoro-4′-methylumbelliferyl-[…]-D-glucopyranoside substrate was transferred to three 1.5 ml microcentrifuge tubes. One of the 1.5 ml tubes was kept at room temperature (24.5° C.). The second tube was placed in a 70° C. dry heat block for 15 min and the third tube was placed in a 100° C. heat block for 15 min. Tubes were kept at room temperature for 30 min following heat exposure, briefly vortexed and centrifuged to collect liquid. One hundred microliters of culture media with substrate from each of the tubes was transferred to two wells (100 microliters per well) of a black 96-well microtiter plate with (NUNC #165301, Thermo Fisher Scientific). The top of the plate was covered with an optically clear sealing film (product #4311971, Applied Biosystems Corporation). Fluorescence readings (360 nm excitation/455 nm emission at 50% gain) were taken from the top of the plate.
(§2) The tube exposed to 100° C. (with 800 ul of remaining media with substrate) was exposed for a second time to 100° C. for 15 min in a dry heat block. One hundred microliters of culture media with substrate from the tube was transferred to two wells (100 microliters per well) of a black 96-well microtiter plate with (NUNC #165301, Thermo Fisher Scientific). The top of the plate was covered with an optically clear sealing film (product #4311971, Applied Biosystems Corporation). Fluorescence readings (360 nm excitation/455 nm emission at 50% gain) were taken from the top of the plate. In Table 9, the mean fluorescence values detected (RFU) for each of the heating conditions are reported.
as §1, with “7)” for “6)”
as §2, with “10,” for “9,”, “reported. […]” for “reported.”

[1] = pH 6 culture media, no spores, 360 nm excitation/455 nm emission

Compound	MEASURED FLUORESCENCE, RFU 70° C. 15 min (pH 6 culture media)	MEASURED FLUORESCENCE, RFU 100° C. 15 + 15 min (pH 6 culture media)	MEASURED FLUORESCENCE, RFU 100° C. 15 min (pH 6 culture media)	MEASURED FLUORESCENCE, RFU RT 15 min [1]	MEASURED FLUORESCENCE, RFU 70° C. 15 min (pH 7 culture media)	MEASURED FLUORESCENCE, RFU 100° C. 15 + 15 min (pH 7 culture media)	MEASURED FLUORESCENCE, RFU 100° C. 15 min (pH 7 culture media)	MEASURED FLUORESCENCE, RFU RT 15 min (pH 7 culture media)	MEASURED FLUORESCENCE, RFU 70° C. 15 min (pH 8 culture media)	MEASURED FLUORESCENCE, RFU 100° C. 15 + 15 min (pH 8 culture media)	MEASURED FLUORESCENCE, RFU 100° C. 15 min (pH 8 culture media)	MEASURED FLUORESCENCE, RFU RT 15 min (pH 8 culture media)	MEASURED FLUORESCENCE, RFU 70° C. 15 min (pH 9 culture media)	MEASURED FLUORESCENCE, RFU 100° C. 15 + 15 min (pH 9 culture media)	MEASURED FLUORESCENCE, RFU 100° C. 15 min (pH 9 culture media)	MEASURED FLUORESCENCE, RFU RT 15 min (pH 9 culture media)
Cc1cc(=O)oc2c(F)c(O[C@H]3O[C@H](CO)[C@@H](O)[C@H](O)[C@H]3O)ccc12 [Example 1, 8′-Fluoro-4′-methylumbelliferyl […]-D-glucopyranoside]	799.5 RFU	1114.5 RFU	957.5 RFU	751.5 RFU	759.5 RFU	1529 RFU	1195 RFU	740.5 RFU	832 RFU	1543 RFU	1274 RFU	774 RFU	905.5 RFU	1770.5 RFU	1343.5 RFU	811.5 RFU
Cc1cc(=O)oc2cc(O[C@H]3O[C@H](CO)[C@@H](O)[C@H](O)[C@H]3O)ccc12 [MUG, 4′-methylumbelliferyl-α-D-glucopyranoside]	774.5 RFU	888 RFU	829 RFU	751 RFU	809 RFU	893.5 RFU	862 RFU	671 RFU	823.5 RFU	939 RFU	857.5 RFU	788.5 RFU	862.5 RFU	1099 RFU	978.5 RFU	694 RFU
Cc1cc(=O)oc2cc(O[C@H]3O[C@H](CO)[C@@H](O)[C@H](O)[C@H]3O)c(F)cc12 [Example 6F-MUG, 6′-Fluoro-4′-methylumbelliferyl […]-D-glucopyranoside]	932.5 RFU	2005 RFU	1486.5 RFU	897.5 RFU	1012 RFU	2654.5 RFU	1690.5 RFU	924.5 RFU	1079.5 RFU	3160.5 RFU	2121.5 RFU	983 RFU	1218 RFU	3964 RFU	2728 RFU	994.5 RFU
